In patent US7138242B2, “Olfactory receptor expression libraries and methods of making and using them” (Johns Hopkins University, priority 1998, dated 2006):
Entries after “also recorded” stand apart in the source; their conditions may differ.

Legend:
[1] = test system: mouse olfactory receptor TM II–VII chimeric receptor library (pools of clones); assay: Ca2+ imaging screen of 80 library chimeric receptors (10 pools of eight constructs) against 26 odorants in HEK-293 cells with Gα15,16; type: cell-based; details: for intracellular Ca2+ response of a clone pool: odorants applied sequentially
Protocol: HEK-293 cells (obtained from the ATCC) were grown in DMEM supplemented with 10% fetal bovine serum, penicillin (100 U/ml), streptomycin (100 μg/ml) and L-glutamine (2 mM) in 5% CO2. Before transfection, the cells were seeded onto poly-L-lysine-coated 10.5×35×0.17 mm glass coverslips (Bellco) placed in the 60 mm culture dishes. Calcium phosphate-mediated transfections were performed in a 60 mm dish with 3 to 4 μg of receptor construct DNA, 1 μg of pCIS Gα 15 and Gα16 expression vector (Offermanns (1995) supra). 2 μg of pBluescript carrier DNA, and 0.3 μg of pRSV-T antigen expression vector (Gorman (1990) DNA and Protein Eng. Tech. 2:3–9). After 5 to 7 hr incubation, the cells were washed once with PBS containing 0.5 mM EDTA and 10% DMSO, then with PBS before continuing growth in regular media for 40–50 hr.
(§1) These transfected cells were then tested for their ability to functionally respond to ligand-receptor binding. The ligand, the adrenergic agonist isoproterenol, was “bath” applied to the transfected cells and single cell Ca^2+-imaging was performed. Cells were pre-loaded with the Ca^2+-sensitive fluorescent dye FURA-2 AM (Molecular Probes) by bathing in serum-free DMEM containing 4 μM of the membrane permeant chemical for 1 hr at 37° C., then washed with a standard bath solution (130 mM NaCl, 2 mM CaCl2, 5 mM KCl, 10 mM glucose, 10 mM Na.HEPES/pH 7.4 at room temperature). For each experiment, a glass coverslip with FURA-2 loaded HEK 293 cells was introduced into an open-topped, longitudinal microperfusion chamber (300 μl bath volume mounted on a Zeiss Axiovert 135 microscope equipped with an F Fluar 40×/1.30 oil-immersion lens. The cells were superfused with test solutions typically for 30 to 40 seconds (5 ml/application) and washed out with 5 ml of bath solution at the end of each application. Each test solution was freshly diluted and manually applied with a micropipette into the chamber. Because of this manual procedure, there could be several seconds of delay in actual application from electronic tick marks used to define the beginning of application in each graph. At the same time, the solution flow might not be completely laminar. In most cases, the onset of Ca2+ rise in response to a specific solution occurred within 15 seconds of the beginning of solution application, though longer delays were sometimes observed. Acetylcholine was applied at the end of each experiment at 10 μM for 15–20 seconds. Ratiometric Ca^2+ measurements were performed as described by Grynkiewicz (1985) 260:3440–3450, with modifications using the Zeiss/Attofluor-Ratiovision imaging system. At 5-second intervals, the cells were sequentially illuminated for less than 100 ms, first at 340 nm and then at 380 nm. Fluorescence emission at 510 nm was monitored for each excitation wavelength via an intensified CCD camera. Averaged pixel intensities within 40 to 100 regions of interest, corresponding to 40 to 100 individual cells, were digitized and stored on a computer. Attofluor-Ratiovision software (Atto Instruments) was used to determine the Ca^2+-dependent fluorescence signal expressed as the F340/F380 ratio.
The 7-transmembrane domain region TM II–VII expressing vector libraries of the invention were expressed in this cell expression system. Various odorant were screened for their ability to generate a physiologic response in the form of a calcium transient, as above. Eighty plasmid clones arrayed in microtiter plates were pooled into 10 groups of eight constructs each, and co-transfected with Gα15,16 into HEK-293 cells. […]

[2] = test system: full-length I-C6 receptor fused to translocation domain (rhodopsin tag); assay: Ca2+ imaging, full-length I-C6 receptor with rhodopsin tag in HEK-293 cells; type: cell-based, mouse
Protocol: PCR products were digested with PstI and BspEI restriction enzymes before size fractionation, purification and ligation into the pCMV-Rho/M4NC vector (see FIG. 1A). The vector ligation products were transformed into E. coli and 480 clones were placed in 96-well plates. […] Pools of cells from a single column of the plates (8 wells) were grown in a 50 ml culture and plasmid DNA prepared. Insert-containing vectors containing: the 5′-untranslated region of the rhodopsin gene, which included its coding region for the initiation methionine and the next 19 residues; joined to a full-length cDNA for a mouse olfactory receptor (M4 or I-C6), under the control of the CMV promoter, were also prepared. The full-length coding region of olfactory receptors mI7 and I-C6 were obtained by screening a mouse (129 SV/J) genomic phage (λFIX-II) library (2×10^6 independent clones) using ^32P-labeled DNA fragments (of TMII through VII sequence) of the respective receptors under stringent conditions (hybridized at 0.2×SSC at 65° C.). DNA fragments encoding the full-length receptors were cloned into pBluescript (Stratagene) and sequenced.
as §1
To determine if these physiologic responses were caused by ligand interaction with a full-length 7-membrane receptor, a genomic clone of the entire I-C6 receptor coding sequence was isolated and used to make a chimeric molecule incorporating the tranlocation domain of the invention (the “rhodopsin tag” sequence). The full-length I-C6 receptor retained the same stereo-selectivity as a chimeric receptor construct whose only I-C6 sequence was the transmembrane domains II through VII (i.e., the odorant/ligand binding domain). […]

[3] = test system: I-G7 chimeric olfactory receptor; assay: Ca2+ imaging, individual clone I-G7 in HEK-293 cells with Gα15,16; type: cell-based, mouse; details: 10 μM
Protocol: These transfected cells were then tested for their ability to functionally respond to ligand-receptor binding. The ligand, the adrenergic agonist isoproterenol, was “bath” applied to the transfected cells and single cell Ca^2+-imaging was performed. Cells were pre-loaded with the Ca^2+-sensitive fluorescent dye FURA-2 AM (Molecular Probes) by bathing in serum-free DMEM containing 4 μM of the membrane permeant chemical for 1 hr at 37° C., then washed with a standard bath solution (130 mM NaCl, 2 mM CaCl2, 5 mM KCl, 10 mM glucose, 10 mM Na.HEPES/pH 7.4 at room temperature). For each experiment, a glass coverslip with FURA-2 loaded HEK 293 cells was introduced into an open-topped, longitudinal microperfusion chamber (300 μl bath volume mounted on a Zeiss Axiovert 135 microscope equipped with an F Fluar 40×/1.30 oil-immersion lens. The cells were superfused with test solutions typically for 30 to 40 seconds (5 ml/application) and washed out with 5 ml of bath solution at the end of each application. Each test solution was freshly diluted and manually applied with a micropipette into the chamber. Because of this manual procedure, there could be several seconds of delay in actual application from electronic tick marks used to define the beginning of application in each graph. At the same time, the solution flow might not be completely laminar. In most cases, the onset of Ca2+ rise in response to a specific solution occurred within 15 seconds of the beginning of solution application, though longer delays were sometimes observed. Acetylcholine was applied at the end of each experiment at 10 μM for 15–20 seconds. Ratiometric Ca^2+ measurements were performed as described by Grynkiewicz (1985) 260:3440–3450, with modifications using the Zeiss/Attofluor-Ratiovision imaging system. […] Fluorescence emission at 510 nm was monitored for each excitation wavelength via an intensified CCD camera. […] Attofluor-Ratiovision software (Atto Instruments) was used to determine the Ca^2+-dependent fluorescence signal expressed as the F340/F380 ratio. […]

[4] = test system: I-D3 chimeric olfactory receptor; assay: Ca2+ imaging, individual clone I-D3 in HEK-293 cells with Gα15,16; type: cell-based, mouse
Protocol: (§2) These transfected cells were then tested for their ability to functionally respond to ligand-receptor binding. The ligand, the adrenergic agonist isoproterenol, was “bath” applied to the transfected cells and single cell Ca^2+-imaging was performed. Cells were pre-loaded with the Ca^2+-sensitive fluorescent dye FURA-2 AM (Molecular Probes) by bathing in serum-free DMEM containing 4 μM of the membrane permeant chemical for 1 hr at 37° C., then washed with a standard bath solution (130 mM NaCl, 2 mM CaCl2, 5 mM KCl, 10 mM glucose, 10 mM Na.HEPES/pH 7.4 at room temperature). […] Fluorescence emission at 510 nm was monitored for each excitation wavelength via an intensified CCD camera. […] Attofluor-Ratiovision software (Atto Instruments) was used to determine the Ca^2+-dependent fluorescence signal expressed as the F340/F380 ratio. […]

[5] = test system: I-C6 chimeric olfactory receptor (TM II–VII); assay: Ca2+ imaging, individual clone I-C6 (TM II–VII chimeric) in HEK-293 cells with Gα15,16; type: cell-based, mouse; details: (−) vs (+) isomer
Protocol: as §2

[6] = control experiments lacking Gα15,16

SMILES	intracellular Ca2+ response of a clone pool ([1]; 10 μM)	qualitative rank order of potency for binding and activating the I-C6 receptor [2]	intracellular Ca2+ response ([2]; 30 μM)	other results
CC(C)=CCCC(C)CC=O (single isomer, unassigned; (+)) [(+) citronellal]	absence of response	(−)citronellal>(+)citronellal, citronellyl bromide>28 other odorants	elicit a response	intracellular Ca2+ response ([2]; 100 μM): elicit a response
C=C(C)C1CC=C(C)CC1 (single isomer, unassigned; (+)) [(+) limonene]	transient increases in Ca^2+			intracellular Ca2+ response [3]: responded
C=C(C)C1CC=C(C)C(=O)C1 (single isomer, unassigned; (-)) [(−) carvone]	transient increases in Ca^2+			Ca2+ response of a clone pool to a second application ([1]; 10 μM, second application): second response to (−) carvone could still be elicited; intracellular Ca2+ response [4]: responsive
CC(C)=CCCC(C)CC=O (single isomer, unassigned; (-)) [(−) citronellal]	transient increases in Ca^2+	(−)citronellal>(+)citronellal, citronellyl bromide>28 other odorants		response of a library receptor ([1]; micromolar concentrations, three receptors, respectively): responded; stereo-selectivity of the Ca2+ response [5]: selective; also recorded: preferred; intracellular Ca2+ response ([2]; 1 μM): responding; stereo-selectivity of the Ca2+ response ([2]; (−) vs (+) isomer): preferred; intracellular Ca2+ response after a prior positive response ([2]; applied immediately after 30 μM (+) citronellal (desensitization)): lack of response; intracellular Ca2+ response [2, 6]: no response
CC(C)=CCCC(C)CC(=O)O (single isomer, unassigned; (-)) [(−) citronellic acid]			only 30 μM (−) citronellyl bromide elicited a small response	
CC(C)=CCCC(C)CCO (single isomer, unassigned; (-)) [(−) citronellol]			only 30 μM (−) citronellyl bromide elicited a small response	
CC(C)=CCCC(C)CCBr (single isomer, unassigned; (-)) [(−) citronellyl bromide]		(−)citronellal>(+)citronellal, citronellyl bromide>28 other odorants	small response	intracellular Ca2+ response [2, 6]: no response
